Source: PMC11277476, “Synthesis and Biological Evaluation of Novel 2-Aroyl Benzofuran-Based Hydroxamic Acids as Antimicrotubule Agents” (International Journal of Molecular Sciences, 2024)

What was measured:
[1] = tested on: human peripheral blood mononuclear cells (PBMC), not stimulated with PHA; experiment: Cytotoxicity in resting PBMC (resazurin, 72 h); type: cell-based; conditions: mean ± SEM
Text: (§1) Peripheral blood mononuclear cells (PBMC), obtained from human peripheral blood (leucocyte-rich plasma-buffy coats) of healthy volunteers using a Lymphoprep^TM (Serumwerk Bernburg AG) gradient, were used for the evaluation of the cytotoxic potential of compounds in normal human cells.
(§2) After extensive washing with saline solution (Hank’s Buffer Saline Solution, BioConcept, Allschwil, Switzerland), quiescent PBMCs were resuspended (1.0 × 10^6 cells/mL) in RPMI-1640 medium supplemented with 10% FBS. To evaluate cytotoxicity in proliferating PBMCs cultures, cells were resuspended at a concentration of 5 × 10^5 cells/mL in a growth medium containing […] of PHA (Irvine Scientific, Santa Ana, CA, USA). The same cellular density was utilized for resting PBMC cultures, without the addition of PHA. The tested compounds were added at different concentrations, and after a 72 h incubation, cell viability was determined using the resazurin test as described above.

human recombinant HDAC6 = target: T1, human recombinant HDAC6 (Homo sapiens, UniProt Q9UBN7); experiment: HDAC isoform inhibition, fluorogenic substrate, HDAC6; type: biochemical; conditions: mean ± SE, read-out: IC50 (µM) hHDAC6
T1 construct: purchased BPS Bioscience 50056
T1 sequence (Q9UBN7 1-1215): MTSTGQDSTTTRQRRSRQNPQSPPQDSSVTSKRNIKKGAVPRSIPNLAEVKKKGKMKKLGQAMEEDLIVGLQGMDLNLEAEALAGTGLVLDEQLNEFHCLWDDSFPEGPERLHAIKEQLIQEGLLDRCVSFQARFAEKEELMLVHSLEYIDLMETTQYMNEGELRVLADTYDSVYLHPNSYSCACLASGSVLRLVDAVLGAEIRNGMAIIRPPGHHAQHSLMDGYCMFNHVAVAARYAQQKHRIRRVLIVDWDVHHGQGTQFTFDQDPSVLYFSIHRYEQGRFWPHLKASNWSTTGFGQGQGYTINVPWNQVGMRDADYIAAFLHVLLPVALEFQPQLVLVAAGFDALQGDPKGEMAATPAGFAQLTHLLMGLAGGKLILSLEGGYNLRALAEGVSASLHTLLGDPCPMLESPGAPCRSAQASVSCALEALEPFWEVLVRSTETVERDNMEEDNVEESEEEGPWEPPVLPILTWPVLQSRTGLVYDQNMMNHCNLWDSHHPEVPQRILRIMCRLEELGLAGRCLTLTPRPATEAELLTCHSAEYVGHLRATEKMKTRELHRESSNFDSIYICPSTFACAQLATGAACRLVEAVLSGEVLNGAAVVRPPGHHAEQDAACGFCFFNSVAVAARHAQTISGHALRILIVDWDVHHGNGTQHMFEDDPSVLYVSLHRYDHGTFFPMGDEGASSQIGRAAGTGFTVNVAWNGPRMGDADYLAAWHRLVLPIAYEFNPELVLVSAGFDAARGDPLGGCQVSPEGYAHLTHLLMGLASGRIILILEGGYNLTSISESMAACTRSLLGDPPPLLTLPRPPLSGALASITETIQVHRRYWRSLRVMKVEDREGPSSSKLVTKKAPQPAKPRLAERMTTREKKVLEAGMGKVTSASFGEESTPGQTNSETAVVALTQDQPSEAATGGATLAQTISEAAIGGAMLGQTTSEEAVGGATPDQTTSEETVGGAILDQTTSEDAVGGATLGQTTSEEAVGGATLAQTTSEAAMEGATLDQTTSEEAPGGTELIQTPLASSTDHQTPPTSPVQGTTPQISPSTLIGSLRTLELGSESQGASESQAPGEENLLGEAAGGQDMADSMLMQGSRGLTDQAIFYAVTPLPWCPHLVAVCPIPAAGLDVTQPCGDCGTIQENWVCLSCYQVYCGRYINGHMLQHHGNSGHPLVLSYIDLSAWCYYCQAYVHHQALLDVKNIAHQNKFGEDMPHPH
Protocol: Further experiments were also carried out to evaluate the inhibitory activities of test compounds on selected HDAC isoforms. […] Following an incubation of 15 min at RT, fluorescence was measured in an EnSight multimodal plate reader (PerkinElmer, Boston, MA, USA) with an excitation wavelength of 360 nm and an emission wavelength of 450 nm.

HT-29 cells [2] = experiment: In vitro growth inhibition (resazurin, 72 h), HT-29; type: cell-based; conditions: Homo sapiens, mean ± SE
[3] = tested on: human peripheral blood mononuclear cells (PBMC) stimulated with PHA; experiment: Cytotoxicity in PHA-stimulated PBMC (resazurin, 72 h); type: cell-based; conditions: mean ± SEM
Text: as §1, §2

HT-29 cells [4] = experiment: Cell cycle analysis (PI, flow cytometry); type: cell-based, human; conditions: 250 nM for 24 h (figure legend)
Protocol: HT29 cells were treated with the indicated compounds for 24 h and then harvested and fixed in 70% ice-cold ethanol for 24 h. The cells were next treated with a 0.1% v/v solution of Triton X-100 in phosphate buffered saline (PBS) containing 10 μg/mL RNAse A and 20 μg/mL PI. The cells were incubated at room temperature for 30 min and then analyzed on a BD FACS Celesta^TM Flow Cytometer (BD Bioscience, Franklin Lakes, NJ, USA) in the FL3 channel. DNA histograms were analyzed using FlowJo_v10.7.1 software (BD Bioscience, Franklin Lakes, NJ, USA).

HeLa cells [5] = experiment: In vitro growth inhibition (resazurin, 72 h), HeLa; type: cell-based; conditions: Homo sapiens, concentration inhibiting tumor cell proliferation by 50%, mean ± SE
A549 cells = experiment: In vitro growth inhibition (resazurin, 72 h), A549; type: cell-based; conditions: Homo sapiens, mean ± SE
bovine brain tubulin = experiment: Inhibition of tubulin polymerization (turbidimetric); type: biochemical; conditions: tubulin at 10 μM; 20 min incubation at 30 °C; read-out: Tubulin Assembly IC50 ± SD
Protocol: (§3) Bovine brain tubulin was purified as described previously. To evaluate the effects of the compounds on tubulin assembly in vitro [77], varying concentrations were preincubated with 10 μM tubulin in 0.8 M monosodium glutamate (pH 6.6) at 30 °C, and the reaction mixtures were then cooled to 0 °C. After addition of GTP, the mixtures were transferred to 0 °C cuvettes in Beckman Coulter (Brea, CA, USA) DU-7400/DU-7500 recording spectrophotometers equipped with electronic temperature controllers and were warmed to 30 °C, and the assembly of tubulin was observed turbidimetrically. […] Inhibition of colchicine binding to tubulin was measured as described before, except that the reaction mixtures contained 0.5 μM tubulin and 5 μM each of [^3H]colchicine and test compound. Only one DEAE-cellulose filter was used per sample, and filtration was via gravity.

[6] = tested on: tubulin (colchicine site); experiment: Inhibition of [3H]colchicine binding to tubulin; design: species or system bovine; conditions: tubulin 0.5 µM, [3H]colchicine 5 µM, tested compound 5 µM
Protocol: as §3

MDA-MB-231 cells = experiment: In vitro growth inhibition (resazurin, 72 h), MDA-MB-231; type: cell-based; conditions: Homo sapiens, mean ± SE
MCF-7 cells = experiment: In vitro growth inhibition (resazurin, 72 h), MCF-7; type: cell-based; conditions: Homo sapiens, MCF7, mean ± SE
[7] = tested on: acetylated histone H3 (Ac-H3K9) in HT-29 cells; experiment: Western blot of acetylated histone H3 (Ac-H3K9) in HT-29 cells; type: cell-based, human; conditions: 10 µM, 6 h
Protocol: HT-29 cells were treated with selected compounds for 6 h at 10 µM, lysed, and then processed as previously described.
Antibodies directed against total histone H3 and its acetylated form (Ac-H3K9) were purchased from Cell Signaling Technology, Danvers, Massachusetts, while anti-vinculin antibody was purchased from Santa Cruz Biotechnology. Membranes were visualized using ECL select (GE Healthcare), and images were acquired using the iBright FL1500 Imaging System (Thermo Fisher Scientific, Waltham, MA, USA). Anti-vinculin (1:25,000, Santa Cruz Biotechnology, Dallas, TX, USA) was used as loading controls.

HT-29 cells [8] = experiment: Annexin V-PI flow cytometric analysis of apoptosis, HT-29; type: cell-based, human; conditions: 96 h
Protocol: (§4) The quantification of apoptosis induced by the test compounds was carried out with flow cytometric analysis using the Annexin-V Fluos kit (Roche Diagnostics, Milan, Italy) following the manufacturer’s instructions. Cancer cells treated with the test compounds for the indicated time points and concentrations were then labeled with annexin V/FITC and PI and analyzed with BD FACS Celesta^TM Flow Cytometer (BD Bioscience, Franklin Lakes, NJ, USA) using the FL1 and FL3 channel, respectively, and FlowJo_v10.7.1 software.

HeLa cells [9] = experiment: Annexin V-PI flow cytometric analysis of apoptosis, HeLa; type: cell-based, human; conditions: 48 h, lower dose tested 25 nM
Protocol: as §4

Structure (SMILES) | GI50 [1] | IC50 (human recombinant HDAC6) | IC50 (HT-29 cells [2]) | GI50 [3] | Percentage of HT-29 cells in G1 phase (HT-29 cells [4]) | Percentage of HT-29 cells in G2/M phase (HT-29 cells [4]) | Percentage of HT-29 cells in S phase (HT-29 cells [4]) | IC50 (HeLa cells [5]) | IC50 (A549 cells) | IC50 (bovine brain tubulin) | Colchicine Binding % Inhibition ± SD [6] | IC50 (MDA-MB-231 cells) | IC50 (MCF-7 cells) | acetylated histone H3 (Ac-H3K9) level, Western blot [7] | induction of apoptosis / cell death (annexin V/PI), in words (HT-29 cells [8]) | cytotoxic effect (annexin V/PI), in words (HeLa cells [9])
COc1cc2oc(C(=O)c3cc(OC)c(OC)c(OC)c3)cc2cc1/C=C/C(=O)NO [Compound 6i, (E)-N-Hydroxy-3-(6-methoxy-2-(3,4,5-trimethoxybenzoyl)benzofuran-5-yl)acrylamide] | > 10 µM | 5.16 ± 0.34 µM | 272 ± 2.03 nM | 2.32 ± 0.23 µM | 4.13% | 91.07% | 4.79% | 14.8 ± 0.32 nM | 304 ± 1.46 nM | 1600 ± 300 nM | 43 ± 4% | 93.7 ± 2.04 nM | 69 ± 6 nM | significantly increased acetylated histone H3 (Ac-H3K9) | able to induce cell apoptosis | –
COc1cc2oc(C(=O)c3ccccc3)c(C)c2cc1/C=C/C(=O)NO [Compound 6g, (E)-3-(2-Benzoyl-6-methoxy-3-methylbenzofuran-5-yl)-N-hydroxyacrylamide] | > 10 µM | 10.2 ± 0.7 µM | 80.3 ± 1.31 nM | 0.15 ± 0.02 µM | 34.91% | 40.74% | 24.35% | 0.36 ± 0.01 nM | 36.7 ± 0.91 nM | 690 ± 100 nM | 86 ± 5% | 23.9 ± 0.77 nM | 30 ± 0.7 nM | – | able to induce cell apoptosis | greatest cytotoxic effects at the lower dose tested
COc1cc2oc(C(=O)c3ccccc3OC)c(C)c2cc1/C=C/C(=O)NO [Compound 6f, (E)-N-Hydroxy-3-(6-methoxy-2-(2-methoxybenzoyl)-3-methylbenzofuran-5-yl)acrylamide] | > 10 µM | 6.12 ± 0.41 µM | 75.3 ± 3.09 nM | 0.51 ± 0.1 µM | 6.12% | 87.54% | 6.34% | 3.9 ± 0.01 nM | 168 ± 5.31 nM | 1200 ± 100 nM | 76 ± 2% | 41.9 ± 2.33 nM | 24 ± 8 nM | significantly increased acetylated histone H3 (Ac-H3K9) | able to induce cell apoptosis | –
COc1ccc(/C=C\c2cc(OC)c(OC)c(OC)c2)cc1O [CA-4, combretastatin A-4, reference compound] | – | – | – | – | 41.83% | 27.38% | 30.79% | 4.6 ± 0.1 nM | – | […] | 98 ± 2% | […] | – | – | completely resistant | greatest cytotoxic effects at the lower dose tested
